The text below walks through data of ChEMBL document CHEMBL1140986, “Sidechain-linked inhibitors of HIV-1 protease dimerization” (Bioorg Med Chem, 2009).

Data set [1] deals with T1, Protease (Human immunodeficiency virus 1, UniProt Q9YQ12). Kind of data set: Inhibition of HIV1 protease dimerization by Zhang-Poorman kinetic assay.
Data set [2] deals with T1, Protease. Kind of data set: Inhibition of HIV1 protease by continuous fluorometric assay.
Data set [3] has as its target Protease (Human immunodeficiency virus 1) (UniProt Q9YQ12). Kind of data set: Binding affinity to HIV1 protease active site at 10 to 50 uM after 1 hr by fluorescence-based cross competition kinetic assay in presence of acetyl-pepstatin.
Data set [4] has the same target. Description: Binding affinity to HIV1 protease allosteric site at 10 to 50 uM after 1 hr by fluorescence-based cross competition kinetic assay in presence of acetyl-pepstatin.
For data set [5] the target is unchanged. Description: Inhibition of HIV1 protease dimerization at 65.3 uM by Zhang-Poorman kinetic assay.
Data set [6] shares this target. Kind of data set: Inhibition of HIV1 protease at 130 uM by competitive Lineweaver-Burke plot.
For data set [7], the target named is T1, Protease. Description: Inhibition of HIV1 protease by competitive inhibition assay.
Data set [8] is described as follows: Solubility in water. The class given is physicochemical.

In brackets after ≈: the same amount, converted by molar mass. Activity calls are given as the source filed them. The calls are words filed in the database; no cut-off is given here. Non-standard residues stand in square brackets, D forms with d. Residues, ends and D or L forms follow the SMILES beside them. *: point of attachment. C16 diacid = O=C(O)CCCCCCCCCCCCCCC(=O)*; aThr = C[C@H](O)[C@H](N)C(=O)O

As for `CC(C)C[C@H](NC(=O)[C@@H](NC(=O)CCCCCCCCCCCCCCC(=O)N[C@@H](CC(N)=O)C(=O)N[C@@H](Cc1ccccc1)C(=O)O)[C@H](C)O)C(=O)N[C@@H](Cc1ccccc1)C(N)=O` ({Phe-Asn-C16 diacid}-[aThr]-Leu-Phe-NH2), the affinity in data set [1] corresponds to a Ki of 3 µM.

In the case of `CC(C)C[C@H](NC(=O)[C@H](CSCCOCCOCCSC[C@H](NC(=O)CCCCC1CCCCC1)C(=O)N[C@@H](Cc1ccccc1)C(=O)O)NC(=O)CCCCC1CCCCC1)C(=O)N[C@@H](Cc1ccccc1)C(N)=O`, in data set [2], the 50% inhibitory concentration (IC50) was found to be 675 µM. In data set [1], this compound showed an inhibition constant (Ki) of 88 µM.

As for `CCC(=O)N[C@@H](CSCCOCCOCCSC[C@H](NC(=O)CC)C(=O)N[C@@H](CC(C)C)C(=O)N[C@@H](Cc1ccccc1)C(N)=O)C(=O)N[C@@H](Cc1ccccc1)C(=O)O`, the result in data set [3] and in data set [5] was inactive. Moreover, the IC50 in data set [2] stood at 130 µM. The outcome in data set [4] and in data set [6] was Active. The affinity in data set [7] corresponds to a Ki of 16.9 µM.

In turn, `CCCCCCC(=O)N[C@@H](CSCCOCCOCCSC[C@H](NC(=O)CCCCCC)C(=O)N[C@H](C(=O)N[C@@H](Cc1ccccc1)C(N)=O)[C@H](C)CC)C(=O)N[C@@H](Cc1ccccc1)C(=O)O` yielded an IC50 in data set [2] of 1.2 µM. Moreover, affinity in data set [1] was put at a Ki of 510 µM.

Compound `CC(C)C[C@H](NC(=O)[C@@H](NC(=O)CCCCCCCCCCCCCCC(=O)N[C@@H](CC(N)=O)C(=O)N[C@@H](Cc1ccccc1)C(=O)O)[C@@H](C)O)C(=O)N[C@@H](Cc1ccccc1)C(N)=O` ({Phe-Asn-C16 diacid}-Thr-Leu-Phe-NH2) came in with a solubility in data set [8] of 1 µM (≈ 0.908 µg/mL).

`CC(C)C[C@H](NC(=O)[C@H](CSCCOCCOCCSC[C@H](NC(=O)CCC1CCCCC1)C(=O)N[C@@H](Cc1ccccc1)C(=O)O)NC(=O)CCC1CCCCC1)C(=O)N[C@@H](Cc1ccccc1)C(N)=O` came in with an IC50 in data set [2] of 2.5 µM.

`CC(C)C[C@H](NC(=O)[C@H](CSCCOCCOCCSC[C@H](NC(=O)Cc1ccccc1)C(=O)N[C@@H](Cc1ccccc1)C(=O)O)NC(=O)Cc1ccccc1)C(=O)N[C@@H](Cc1ccccc1)C(N)=O`: in data set [2], the IC50 came out at 2.5 µM. That is a single-digit micromolar value.

As to `CCCC(=O)N[C@@H](CSCCOCCOCCSC[C@H](NC(=O)CCC)C(=O)N[C@@H](CC(C)C)C(=O)N[C@@H](Cc1ccccc1)C(N)=O)C(=O)N[C@@H](Cc1ccccc1)C(=O)O`, in data set [2], the IC50 turned out to be 87 µM. Further, the Ki in data set [1] was found to be 8.3 µM.

Regarding `CCCCC(=O)N[C@@H](CSCCOCCOCCSC[C@H](NC(=O)CCCC)C(=O)N[C@@H](CC(C)C)C(=O)N[C@@H](Cc1ccccc1)C(N)=O)C(=O)N[C@@H](Cc1ccccc1)C(=O)O`, in data set [2], the IC50 came out at 50 µM. This compound also had a Ki in data set [1] of 6.8 µM.

As to `CCCCCCC(=O)N[C@@H](CSCCOCCOCCSC[C@H](NC(=O)CCCCCC)C(=O)N[C@@H](CC(C)C)C(=O)N[C@@H](Cc1ccccc1)C(N)=O)C(=O)N[C@@H](Cc1ccccc1)C(=O)O`, the concentration in solution in data set [8] (solubility) came to 80 µM (≈ 79 µg/mL). The IC50 in data set [2] is 4 µM. This compound returned an inhibition constant Ki in data set [1] of 1.3 µM.

On to `CCCCCC(=O)N[C@@H](CSCCOCCOCCSC[C@H](NC(=O)CCCCC)C(=O)N[C@@H](CC(C)C)C(=O)N[C@@H](Cc1ccccc1)C(N)=O)C(=O)N[C@@H](Cc1ccccc1)C(=O)O`, for which the concentration in solution in data set [8] (solubility) came to 90 µM (≈ 86.3 µg/mL). Further, the IC50 in data set [2] is 14.9 µM. In data set [1], this compound displayed a Ki of 2.3 µM.

On to `CC(C)C[C@H](NC(=O)[C@H](CSCCOCCOCCSC[C@H](NC(=O)COc1ccccc1)C(=O)N[C@@H](Cc1ccccc1)C(=O)O)NC(=O)COc1ccccc1)C(=O)N[C@@H](Cc1ccccc1)C(N)=O`, for which the midpoint of inhibition in data set [2], the IC50, lay at 2.9 µM. This compound came in with an inhibition constant Ki in data set [1] of 1.25 µM.

As for `CC(C)C[C@H](NC(=O)[C@H](CSCCOCCOCCSC[C@H](NC(=O)CCc1ccccc1)C(=O)N[C@@H](Cc1ccccc1)C(=O)O)NC(=O)CCc1ccccc1)C(=O)N[C@@H](Cc1ccccc1)C(N)=O`, the IC50 in data set [2] turned out to be 6.5 µM. That is a single-digit micromolar value.

In data set [2], `CC(C)C[C@H](NC(=O)[C@H](CSCCOCCOCCSC[C@H](NC(=O)C1CCCCC1)C(=O)N[C@@H](Cc1ccccc1)C(=O)O)NC(=O)C1CCCCC1)C(=O)N[C@@H](Cc1ccccc1)C(N)=O` registered a 50% inhibitory concentration (IC50) of 19.5 µM.

Take `CC[C@@H](C)[C@H](NC(=O)[C@H](CSCCOCCOCCSC[C@H](NC(=O)CCCCC1CCCCC1)C(=O)N[C@@H](Cc1ccccc1)C(=O)O)NC(=O)CCCCC1CCCCC1)C(=O)N[C@@H](Cc1ccccc1)C(N)=O`: half-maximal inhibition in data set [2] (IC50) was put at 64 µM. Also, the Ki in data set [1] came to 40.1 µM.

Take `CC(C)C[C@H](NC(=O)[C@H](CSCCOCCOCCSC[C@H](NC(=O)CC1CCCCC1)C(=O)N[C@@H](Cc1ccccc1)C(=O)O)NC(=O)CC1CCCCC1)C(=O)N[C@@H](Cc1ccccc1)C(N)=O`: in data set [2], the IC50 turned out to be 9.5 µM.

Usually Ki stands for the equilibrium dissociation constant of an inhibitor or competing ligand from its target. High values mean weaker binding, low ones tighter binding. A word on the IC50: it is the concentration at which inhibition is half-maximal. The solubility is how much of the substance goes into solution per volume.
